Molecular target: human NaV subtype, like NaV 1.7 (Homo sapiens, UniProt Q15858)
Assay: E-VIPR optical membrane potential assay with electrical stimulation
Format: cell-based
Conditions: active against one or more sodium channels; Table 3 does not name the assay or NaV subtype; read-out: Binned Activity Data (IC50)
From the text: Assays for Detecting and Measuring NaV Inhibition Properties of Compound E-VIPR Optical Membrane Potential Assay Method with Electrical Stimulation
Sodium channels are voltage-dependent proteins that can be activated by inducing membrane voltage changes by applying electric fields. The electrical stimulation instrument and methods of use are described in Ion Channel Assay Methods PCT/US01/21652, herein incorporated by reference and are referred to as E-VIPR. The instrument comprises a microtiter plate handler, an optical system for exciting the coumarin dye while simultaneously recording the coumarin and oxonol emissions, a waveform generator, a current- or voltage-controlled amplifier, and a device for inserting electrodes in well. Under integrated computer control, this instrument passes user-programmed electrical stimulus protocols to cells within the wells of the microtiter plate.
24 hours before the assay on E-VIPR, HEK cells expressing human NaV subtype, like NaV 1.7, are seeded in 384-well poly-lysine coated plates at 15,000-20,000 cells per well. Other subtypes are performed in an analogous mode in a cell line expressing the NaV of interest. HEK cells are grown in media (exact composition is specific to each cell type and NaV subtype) supplemented with 10% FBS (Fetal Bovine Serum, qualified; GibcoBRL #16140-071) and 1% Pen-Strep (Penicillin-Streptomycin; GibcoBRL #15140-122). Cells are grown in vented cap flasks, in 90% humidity and 10% CO2, to 100% confluence. They are usually split by trypsinization 1:10 or 1:20, depending on scheduling needs, and grown for 2-3 days before the next split.
Bath 1 buffer. Glucose 10 mM (1.8 g/L), Magnesium Chloride (Anhydrous), 1 mM (0.095 g/L), Calcium Chloride, 2 mM (0.222 g/L), HEPES 10 mM (2.38 g/L), Potassium Chloride, 4.5 mM (0.335 g/L), Sodium Chloride 160 mM (9.35 g/L).
Hexyl Dye Solution: Bath 1 Buffer+0.5% β-cyclodextrin (make this prior to use, Sigma #C4767), 8 μM CC2-DMPE+2.5 μM DiSBAC6(3). To make the solution Add volume of 10% Pluronic F127 stock equal to volumes of CC2-DMPE+DiSBAC6(3). The order of preparation is first mix Pluronic and CC2-DMPE, then add DiSBAC6(3) while vortexing, then add Bath 1+β-Cyclodextrin.
1) Pre-spot compounds (in neat DMSO) into compound plates. Vehicle control (neat DMSO), the positive control (20 mM DMSO stock tetracaine, 125 μM final in assay) and test compounds are added to each well at 160× desired final concentration in neat DMSO. Final compound plate volume will be 80 μL (80-fold intermediate dilution from 1 μL DMSO spot; 160-fold final dilution after transfer to cell plate). Final DMSO concentration for all wells in assay is 0.625%.
2) Prepare Hexyl Dye Solution.
3) Prepare cell plates. On the day of the assay, medium is aspirated and cells are washed three times with 100 μL of Bath 1 Solution, maintaining 25 μL residual volume in each well.
4) Dispense 25 μL per well of Hexyl Dye Solution into cell plates. Incubate for 20-35 minutes at room temp or ambient conditions.
5) Dispense 80 μL per well of Bath 1 into compound plates. Acid Yellow-17 (1 mM) is added and Potassium Chloride can be altered from 4.5 to 20 mM depending on the NaV subtype and assay sensitivity.
6) Wash cell plates three times with 100 μL per well of Bath1, leaving 25 μL of residual volume. Then transfer 25 uL per well from Compound Plates to Cell Plates. Incubate for 20-35 minutes at room temp/ambient condition
7) Read Plate on E-VIPR. Use the current-controlled amplifier to deliver stimulation wave pulses for typically 9 seconds and a scan rate of 400 Hz. A pre-stimulus recording is performed for 0.5 seconds to obtain the un-stimulated intensities baseline. The stimulatory waveform is applied for 9 seconds followed by 0.5 seconds of post-stimulation recording to examine the relaxation to the resting state.

Chain of human NaV subtype, like NaV 1.7 (Q15858 whole entry): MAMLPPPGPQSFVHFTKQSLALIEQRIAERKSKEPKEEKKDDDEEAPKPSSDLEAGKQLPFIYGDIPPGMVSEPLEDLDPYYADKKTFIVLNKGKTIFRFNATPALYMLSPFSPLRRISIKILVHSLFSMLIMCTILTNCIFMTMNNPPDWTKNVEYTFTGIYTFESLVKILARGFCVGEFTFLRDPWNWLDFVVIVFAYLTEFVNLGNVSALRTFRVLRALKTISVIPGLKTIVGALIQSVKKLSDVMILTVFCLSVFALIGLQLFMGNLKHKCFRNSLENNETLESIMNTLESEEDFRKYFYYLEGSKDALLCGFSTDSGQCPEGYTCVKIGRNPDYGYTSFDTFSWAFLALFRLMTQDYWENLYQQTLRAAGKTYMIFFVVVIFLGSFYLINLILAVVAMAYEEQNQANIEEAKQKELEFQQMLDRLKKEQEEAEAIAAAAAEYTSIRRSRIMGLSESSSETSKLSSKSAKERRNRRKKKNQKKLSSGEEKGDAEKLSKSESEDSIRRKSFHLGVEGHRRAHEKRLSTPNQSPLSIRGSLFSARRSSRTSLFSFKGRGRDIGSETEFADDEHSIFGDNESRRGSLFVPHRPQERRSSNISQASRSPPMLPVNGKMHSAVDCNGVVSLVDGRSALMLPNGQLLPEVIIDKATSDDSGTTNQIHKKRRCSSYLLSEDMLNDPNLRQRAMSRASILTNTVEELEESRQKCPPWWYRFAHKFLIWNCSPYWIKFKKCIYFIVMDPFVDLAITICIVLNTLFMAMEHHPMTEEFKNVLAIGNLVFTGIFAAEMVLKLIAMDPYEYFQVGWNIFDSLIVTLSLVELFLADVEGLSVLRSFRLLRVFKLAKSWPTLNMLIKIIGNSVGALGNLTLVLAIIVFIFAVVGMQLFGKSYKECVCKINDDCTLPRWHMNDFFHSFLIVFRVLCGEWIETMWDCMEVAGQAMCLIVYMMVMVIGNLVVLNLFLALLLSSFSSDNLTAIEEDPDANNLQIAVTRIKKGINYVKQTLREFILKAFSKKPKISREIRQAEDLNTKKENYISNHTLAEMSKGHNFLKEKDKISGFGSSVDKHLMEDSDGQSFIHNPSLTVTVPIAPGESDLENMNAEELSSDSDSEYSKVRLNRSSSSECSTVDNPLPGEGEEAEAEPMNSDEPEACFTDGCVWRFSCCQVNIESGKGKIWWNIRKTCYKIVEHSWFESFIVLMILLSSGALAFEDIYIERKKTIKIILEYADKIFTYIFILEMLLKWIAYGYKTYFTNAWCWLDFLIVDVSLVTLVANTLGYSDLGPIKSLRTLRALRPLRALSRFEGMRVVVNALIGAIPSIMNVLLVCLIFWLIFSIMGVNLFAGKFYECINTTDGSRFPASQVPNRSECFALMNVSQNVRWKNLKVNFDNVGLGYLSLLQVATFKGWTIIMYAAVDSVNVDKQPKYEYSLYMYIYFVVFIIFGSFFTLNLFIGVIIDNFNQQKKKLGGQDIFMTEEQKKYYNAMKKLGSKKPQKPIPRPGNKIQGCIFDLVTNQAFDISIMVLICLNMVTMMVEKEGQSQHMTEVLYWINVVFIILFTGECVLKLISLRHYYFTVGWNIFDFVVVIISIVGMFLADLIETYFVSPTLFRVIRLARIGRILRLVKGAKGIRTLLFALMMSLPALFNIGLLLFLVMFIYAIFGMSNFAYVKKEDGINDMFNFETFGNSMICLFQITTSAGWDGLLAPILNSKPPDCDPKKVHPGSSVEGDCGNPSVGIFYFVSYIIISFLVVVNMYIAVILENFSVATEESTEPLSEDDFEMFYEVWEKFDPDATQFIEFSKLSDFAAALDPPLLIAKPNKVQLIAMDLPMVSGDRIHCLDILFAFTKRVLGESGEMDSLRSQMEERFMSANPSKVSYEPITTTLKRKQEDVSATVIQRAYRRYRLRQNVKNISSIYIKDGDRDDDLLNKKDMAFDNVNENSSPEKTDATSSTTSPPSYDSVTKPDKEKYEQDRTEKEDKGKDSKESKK

SMILES	IC50 [µM]
CC(C)Oc1ccc(C(=O)N2CCC3(CC2)c2ccc(C(=O)C(F)(F)F)n2C[C@@H](C)N3C)c(F)c1 [Compound 564]	≤ 2
COc1cc(C(=O)N2CCC3(NCCn4c(C(F)(F)F)ccc43)C(C)C2)ccc1OC(C)C (stereo not shown) [Compound 506]	2 to 5
CCOc1ncccc1C(=O)N1CCC2(CC1)c1ccc(C(F)(F)F)n1CCN2C [Compound 297]	≤ 2
Cc1nc(C(=O)N2CCC3(CC2)NCC(C)n2c(C(=O)C(F)(F)F)ccc23)ccc1OC(C)C (stereo not shown) [Compound 198]	≤ 2
Cc1ccc(C(=O)N2CCC3(CC2)c2ccc(C(=O)C(F)(F)F)n2CCN3C)cc1O [Compound 597]	> 5
CN1CCn2c(C(=O)C(F)(F)F)ccc2C12CCN(C(=O)c1ccc(Oc3ccccc3)cc1)CC2 [Compound 402]	2 to 5
CN1CCn2c(C(F)(F)F)ccc2C12CCN(C(=O)c1cccnc1Oc1ccccc1)CC2 [Compound 422]	≤ 2
COc1cc(C(=O)N2CCC3(CC2)c2c(F)cc(C(F)(F)F)n2CCN3C)ccc1C1(O)CCC1 [Compound 410]	≤ 2
Cc1cc(C(=O)N2CCC3(CC2)c2ccc(C(=O)C(F)(F)F)n2CCN3C)cc(C)c1O [Compound 238]	≤ 2
CC1(C)Cn2c(C(=O)C(F)(F)F)ccc2C2(CCN(C(=O)c3ccc(S(=O)(=O)C(C)(C)C)cc3)CC2)N1 [Compound 208]	≤ 2
CCCOc1ccc(C(=O)N2CCC3(CC2)c2ccc(C(=O)C(F)(F)F)n2CCN3C)cc1 [Compound 127]	≤ 2
O=C(c1ccnc2ccccc12)N1CCC2(CC1)NCCn1c(C(F)(F)F)ccc12 [Compound 527]	> 5
COc1cc(C(=O)N2CCC3(CC2)c2c(F)cc(C(F)(F)F)n2CCN3C)ccc1OC(F)F [Compound 113]	≤ 2
CC(=O)c1ccc2n1CCN(C)C21CCN(C(=O)c2ccc(C3CCCCC3)cc2)CC1 [Compound 559]	≤ 2
CC(=O)c1ccc2n1CCN(C)C21CCN(C(=O)c2ccc(OCC3CC3)cc2)CC1 [Compound 388]	> 5
Cc1cc(C(=O)N2CCC3(CC2)c2ccc(CC(F)(F)F)n2CCN3C)ccc1C(C)(C)O [Compound 593]	≤ 2
CC(C)C(O)c1ccc(C(=O)N2CCC3(CC2)c2ccc(C(F)(F)F)n2CCN3C)cc1 (stereo not shown) [Compound 150]	≤ 2
Cc1cc(C(=O)N2CCC3(CC2)c2ccc(C(=O)C(C)(C)C)n2CCN3C)ccc1O [Compound 601]	≤ 2
CC(C)CCOc1ccc(C(=O)N2CCC3(CC2)NC(C)(C)Cn2cc(F)c(F)c23)cc1 [Compound 79]	> 5
CCCCc1ccc(C(=O)N2CCC3(CC2)c2ccc(C(=O)C(F)(F)F)n2CCN3C)cc1 [Compound 740]	≤ 2
CN1CCn2c(Cl)ccc2C12CCN(C(=O)c1ccc(Cc3ccccc3)cc1)CC2 [Compound 334]	> 5
COc1cc(C(=O)N2CCC3(CC2)NCCn2c(C(F)(F)F)ccc23)ccc1OC(C)(C)C [Compound 435]	2 to 5
COc1cc(C(=O)N2CCC3(CC2)c2ccc(C(F)(F)F)n2CCN3C2CCC2)ccc1OC(C)C [Compound 317]	2 to 5
CCC(C)(C)c1ccc(C(=O)N2CCC3(CC2)c2ccc(C(=O)C(F)(F)F)n2CCN3C)cc1 [Compound 54]	2 to 5
Cc1cc(C(=O)N2CCC3(CC2)c2c(Cl)cc(C(F)(F)F)n2CCN3C)ccc1OC(C)C [Compound 560]	≤ 2
CC(C)c1ccc(C(=O)N2CCC3(CC2)c2ccc(C(=O)C(F)(F)F)n2CCN3C)cc1S(C)(=O)=O [Compound 154]	2 to 5
COc1ccc(C(=O)N2CCC3(CC2)c2ccc(C(=O)C(F)(F)F)n2C[C@@H](C)N3C)cc1C(F)(F)F [Compound 61]	2 to 5
CN1CC(C)(C)n2c(C(=O)C(F)(F)F)ccc2C12CCN(C(=O)c1ccc(C(C)(C)O)c(F)c1)CC2 [Compound 748]	> 5

SMILES	IC50 [µM]
CC(=O)c1ccc2n1CC(C)(C)NC21CCN(C(=O)c2ccc(OC(C)C)c(C(F)(F)F)c2)CC1 [Compound 610]	≤ 2
CC(C)CCOc1ccc(C(=O)N2CCC3(CC2)NCC(C)n2c(C(=O)C(F)(F)F)ccc23)nc1 (stereo not shown) [Compound 611]	≤ 2
CN1CCn2c(Cl)ccc2C12CCN(C(=O)c1ccc(OC(F)(F)F)cc1)CC2 [Compound 323]	> 5
CCOC(=O)N1CCn2c(C(F)(F)F)ccc2C12CCN(C(=O)c1ccc(OC(C)C)c(OC)c1)CC2 [Compound 741]	≤ 2
COC(=O)N1CCn2c(C(F)(F)F)ccc2C12CCN(C(=O)c1ccc(C(C)(C)O)c(C)c1)CC2 [Compound 683]	≤ 2
CN1CCn2c(Cl)ccc2C12CCN(C(=O)c1ccc(OCC3CC3)cc1)CC2 [Compound 147]	2 to 5
CN1CCn2c(C(F)(F)F)cc(Cl)c2C12CCN(C(=O)c1ccc(CC(C)(C)O)c(F)c1)CC2 [Compound 401]	≤ 2
CC(C)S(=O)(=O)c1ccc(C(=O)N2CCC3(CC2)NC(C)(C)Cn2c(C(=O)C(F)(F)F)ccc23)cc1 [Compound 557]	≤ 2
CCCCOc1cc(C(=O)N2CCC3(CC2)c2ccc(Cl)n2CCN3C)ccc1OC [Compound 539]	> 5
Cc1cc(C(=O)N2CCC3(CC2)c2c(F)cc(C(F)(F)F)n2CCN3C)ccc1OC(C)C [Compound 672]	≤ 2
COc1cc(C(=O)N2CCC3(CC2)c2c(Cl)cc(C(F)(F)F)n2CCN3C)ccc1COCCC(F)(F)F [Compound 554]	≤ 2
COc1cc(C(=O)N2CCC3(CC2)c2ccc(C(=O)C(F)(F)F)n2CCN3C)ccc1OCCOC(F)(F)F [Compound 360]	≤ 2
Cc1cc(S(=O)(=O)C(C)C)ccc1C(=O)N1CCC2(CC1)c1ccc(C(=O)C(F)(F)F)n1CCN2C [Compound 153]	> 5
COc1cc(C(=O)N2CCC3(CC2)c2ccc(C(=O)C(C)(C)C)n2CCN3C)ccc1OC(C)C [Compound 137]	≤ 2
CN1CCn2c(C(F)(F)F)cc(F)c2C12CCN(C(=O)c1ccc(S(=O)(=O)C(F)F)cc1)CC2 [Compound 23]	≤ 2
CC1(C)Cn2c(C(=O)C(F)(F)F)ccc2C2(CCN(C(=O)c3ccc(C4CCCCC4)cc3)CC2)N1 [Compound 563]	≤ 2
CC(=O)c1ccc2n1CCN(C)C21CCN(C(=O)c2ccc(OCCC(C)C)cc2)CC1 [Compound 219]	≤ 2
CN1CCn2c(C(=O)C(F)(F)F)ccc2C12CCN(C(=O)c1ccc(OCC3CC3)cc1)CC2 [Compound 47]	≤ 2
CN1CCn2c(C(F)(F)F)ccc2C12CCN(C(=O)c1cccc3cccnc13)CC2 [Compound 281]	≤ 2
COc1cc(C(=O)N2CCC3(CC2)c2ccc(C(F)(F)F)n2CCN3C(=O)N(C)C)ccc1OC(C)C [Compound 227]	> 5
CC(C)(O)c1ccc(C(=O)N2CCC3(CC2)c2ccc(C(F)(F)F)n2CCN3CC(F)F)cc1 [Compound 354]	≤ 2
CC(=O)c1ccc2n1C(C)(C)CN(C)C21CCN(C(=O)c2ccc(C3CCCCC3)cc2)CC1 [Compound 361]	≤ 2
CN1CCn2c(C(=O)C(F)(F)F)ccc2C12CCN(C(=O)c1ccc(OC(C)(C)C)cc1)CC2 [Compound 6]	≤ 2
Cc1cc(C(=O)N2CCC3(CC2)c2ccc(C(=O)C(F)(F)F)n2CCN3C)ccc1-c1cncnc1 [Compound 191]	≤ 2
COc1cccc(C(=O)N2CCC3(CC2)c2ccc(C(F)(F)F)n2CCN3C)c1 [Compound 42]	> 5
Cc1cc(C(=O)N2CCC3(CC2)NCC(C)n2c(C(=O)C(F)(F)F)ccc23)ccc1OC(C)C (stereo not shown) [Compound 524]	≤ 2
CC(C)c1ccc(C(=O)N2CCC3(CC2)c2ccc(Cl)n2CCN3C)cc1 [Compound 221]	> 5

Reference: patent publication US8916565B2, “Pyrrolopyrazine-spirocyclic piperidine amides as modulators of ion channels” (priority 2011, dated 2014)
